Measurements: BindingDB's records for doi:10.1021/acs.jnatprod.5b00540 (Toyama Prefectural University, 2015)
Numbered stars: 1 amine (or outer) side, 2 acyl side, 3 side chain; on linkers, the order of the positions; unused ones are H or OH. Bridge positions count the residues as written; N and C are the ends. Square brackets hold non-standard residues; d marks the D form. Peptide text beside a SMILES is read from it. * marks the point of attachment. Cinnamoyl(2-(1Z-pentenyl)) = CCC/C=C\c1ccccc1/C=C/C(=O)*; X1 = CN(/C(=C/c1ccc(O)cc1)C(=O)[*:2])[*:1]; aThr = C[C@H](O)[C@H](N)C(=O)O

Target: T1, Accessory gene regulator protein A (Staphylococcus aureus, UniProt P0A0I7)
T1 sequence (P0A0I7 whole entry): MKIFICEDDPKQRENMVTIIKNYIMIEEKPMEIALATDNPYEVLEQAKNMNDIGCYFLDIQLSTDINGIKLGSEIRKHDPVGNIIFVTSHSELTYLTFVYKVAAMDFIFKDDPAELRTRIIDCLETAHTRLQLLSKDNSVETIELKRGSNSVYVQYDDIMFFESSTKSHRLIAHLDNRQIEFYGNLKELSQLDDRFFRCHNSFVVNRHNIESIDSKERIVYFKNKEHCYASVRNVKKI
Assay: Inhibition of agr-mediated quorum sensing in Staphylococcus aureus after 5 hrs by luminescence analysis

CC(C)[C@@H]1NC(=O)C[C@H](/C=C/c2ccccc2)OC(=O)[C@H](C(C)C)NC(=O)[C@H](C(C)C)NC(=O)[C@@H](C)NC1=O
IC50: 300 nM

C[C@H]1NC(=O)[C@@H](Cc2ccccc2)N(C)C(=O)[C@@H]2CCCN2C(=O)c2ccccc2NC(=O)[C@H](Cc2ccccc2)NC1=O
IC50: 4400 nM

CCC/C=C\c1ccccc1/C=C/C(=O)N[C@@H]1C(=O)N(C)/C(=C/c2ccc(O)cc2)C(=O)N[C@@H](CC(C)C)C(=O)N[C@H](Cc2ccccc2)C(=O)N[C@@H]([C@H](C)O)C(=O)N[C@@H](CC(N)=O)C(=O)N[C@@H](CO)C(=O)O[C@@H]1C ({Cinnamoyl(2-(1Z-pentenyl))}-T[X1]L[dF][aThr]NS; ester 1-C)
IC50: 2500 nM

CC[C@H](C)[C@@H]1NC(=O)[C@@H](C)NC(=O)[C@H](C(C)C)NC(=O)C[C@H](/C=C/c2ccccc2)OC(=O)[C@H](C(C)C)NC1=O [CHEBI:67522]
IC50: 800 nM
